In brackets after ≈: the same amount, converted by molar mass. Where a SMILES comes first, the peptide text is derived from it. Bridges are numbered along the chain shown (N, C = ends). [ ]: non-standard residue; d: D form. The star is where a group is joined. Benzothiazole(5-carbonyl) = O=C(c1ccc2scnc2c1)*; X27 = O=C(c1sc2ccccc2c1Cl)*; X1 = O=C(c1ncc(Cl)cc1Cl)*; Dab = NCC[C@H](N)C(=O)O; X68 = O=C(c1coc(Br)c1)*; Abu = CC[C@H](N)C(=O)O; Dap = NC[C@H](N)C(=O)O
How the values were obtained:
Assay type in all cases: cell-based
[1] = system: Acinetobacter baumannii FADDI-AB030; test: microbe, parasite or virus in culture; conditions: FADDI-AB030
Summary of the method: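 Lipopeptide TFA salts tested against the multidrug-resistant clinical isolate by CLSI (M100-S24) broth microdilution in cation-adjusted Mueller-Hinton broth, with polymyxin B sulphate as control; MIC read.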

[2] = system: Pseudomonas aeruginosa ATCC 27853; conditions: ATCC 27853
Summary of the method: (§1)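 In cation-adjusted Mueller-Hinton broth, each lipopeptide (TFA salt) was titrated against the bacteria by microdilution and the minimum inhibitory concentration recorded per CLSI M100-S24; polymyxin B sulphate ran in parallel.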

[3] = system: Pseudomonas aeruginosa FADDI-PA022; conditions: FADDI-PA022
Summary of the method: as §1

[4] = system: Acinetobacter baumannii FADDI-AB034; conditions: FADDI-AB034
Summary of the method: as §1

[5] = system: Pseudomonas aeruginosa FADDI-PA01; conditions: FADDI-
Summary of the method: as §1

[6] = system: Enterobacter cloacae FADDI-EC006; conditions: FADDI-EC006
Summary of the method: as §1

[7] = system: Enterobacter cloacae FADDI-EC003; conditions: FADDI-EC003
Summary of the method: as §1

[8] = system: Enterobacter cloacae FADDI-EC001; conditions: FADDI-EC001
Summary of the method: (§2)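 Broth microdilution MIC per CLSI in cation-adjusted Mueller-Hinton broth, lipopeptides tested as TFA salts. Polymyxin B sulphate served as control.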

[9] = system: Klebsiella pneumoniae FADDI-KP032; conditions: FADDI-KP032
Summary of the method: as §1

[10] = system: Pseudomonas aeruginosa FADDI-PA038; conditions: FADDI-PA038
Summary of the method: as §1

[11] = system: Klebsiella pneumoniae Kp BM1; conditions: Kp BM1
Summary of the method: as §2

[12] = system: Klebsiella pneumoniae FADDI-KP022; conditions: FADDI-KP022
Summary of the method: as §1

[13] = system: Acinetobacter baumannii ATCC 17978; conditions: ATCC 17978
Summary of the method: as §1

Question: `CC[C@@H]1NC(=O)[C@@H](CC(C)C)NC(=O)[C@H](CCN)NC(=O)[C@@H](NC(=O)[C@H](CN)NC(=O)[C@@H](NC(=O)[C@H](CCN)NC(=O)c2ccc3scnc3c2)[C@@H](C)O)CCNC(=O)[C@H]([C@@H](C)O)NC(=O)[C@H](CCN)NC(=O)[C@H](CCN)NC1=O` [Compound 53] ({Benzothiazole(5-carbonyl)}-[Dab]T[Dap][Dab][Dab][dL][Abu][Dab][Dab]T; lactam 4-C; N-terminus assumed) was tested. Which Minimum inhibitory concentration [1] did it give?
Answer: 1 µg/mL (≈ 0.871 µM)

Question: And the Minimum inhibitory concentration [2]?
Answer: 0.5 µg/mL (≈ 0.435 µM)

Question: And the Minimum inhibitory concentration [3]?
Answer: 0.25 µg/mL (≈ 0.218 µM)

Question: And the Minimum inhibitory concentration [4]?
Answer: 2 µg/mL (≈ 1.74 µM)

Question: What about the Minimum inhibitory concentration [5] of the same compound?
Answer: 0.5 µg/mL (≈ 0.435 µM)

Question: What about the Minimum inhibitory concentration [6] of the same compound?
Answer: 2 µg/mL (≈ 1.74 µM)

Question: What about the Minimum inhibitory concentration [7] of the same compound?
Answer: 0.25 µg/mL (≈ 0.218 µM)

Question: What about the Minimum inhibitory concentration [8] of the same compound?
Answer: <0.125 µg/mL

Question: And the Minimum inhibitory concentration [9]?
Answer: <0.125 µg/mL

Question: What about the Minimum inhibitory concentration [10] of the same compound?
Answer: 0.5 µg/mL (≈ 0.435 µM)

Question: What about the Minimum inhibitory concentration [11] of the same compound?
Answer: 0.5 µg/mL (≈ 0.435 µM)

Question: What about the Minimum inhibitory concentration [12] of the same compound?
Answer: <0.125 µg/mL

Question: And the Minimum inhibitory concentration [13]?
Answer: 2 µg/mL (≈ 1.74 µM)

Question: Which Minimum inhibitory concentration [1] does the source give for `CC[C@@H]1NC(=O)[C@@H](CC(C)C)NC(=O)[C@H](CCN)NC(=O)[C@@H](NC(=O)[C@H](CN)NC(=O)[C@@H](NC(=O)[C@H](CCN)NC(=O)c2coc(Br)c2)[C@@H](C)O)CCNC(=O)[C@H]([C@@H](C)O)NC(=O)[C@H](CCN)NC(=O)[C@H](CCN)NC1=O` [Compound 103] (X68-[Dab]T[Dap][Dab][Dab][dL][Abu][Dab][Dab]T; lactam 4-C) here?
Answer: 1 µg/mL (≈ 0.862 µM)

Question: What about the Minimum inhibitory concentration [2] of the same compound?
Answer: 0.5 µg/mL (≈ 0.431 µM)

Question: What about the Minimum inhibitory concentration [3] of the same compound?
Answer: 0.5 µg/mL (≈ 0.431 µM)

Question: And the Minimum inhibitory concentration [4]?
Answer: 1 µg/mL (≈ 0.862 µM)

Question: And the Minimum inhibitory concentration [5]?
Answer: 0.5 µg/mL (≈ 0.431 µM)

Question: And the Minimum inhibitory concentration [6]?
Answer: 0.5 µg/mL (≈ 0.431 µM)

Question: What about the Minimum inhibitory concentration [7] of the same compound?
Answer: 0.5 µg/mL (≈ 0.431 µM)

Question: And the Minimum inhibitory concentration [8]?
Answer: 0.5 µg/mL (≈ 0.431 µM)

Question: And the Minimum inhibitory concentration [9]?
Answer: 0.5 µg/mL (≈ 0.431 µM)

Question: And the Minimum inhibitory concentration [10]?
Answer: 2 µg/mL (≈ 1.72 µM)

Question: What about the Minimum inhibitory concentration [11] of the same compound?
Answer: 0.5 µg/mL (≈ 0.431 µM)

Question: And the Minimum inhibitory concentration [12]?
Answer: <0.125 µg/mL

Question: What about the Minimum inhibitory concentration [13] of the same compound?
Answer: 1 µg/mL (≈ 0.862 µM)

Question: For `CC(C)C[C@H]1NC(=O)[C@H](CCN)NC(=O)[C@@H](NC(=O)[C@H](CN)NC(=O)[C@@H](NC(=O)[C@H](CCN)NC(=O)c2sc3ccccc3c2Cl)[C@@H](C)O)CCNC(=O)[C@H]([C@@H](C)O)NC(=O)[C@H](CCN)NC(=O)[C@H](CCN)NC(=O)[C@H]([C@@H](C)O)NC1=O` [Compound 68] (X27-[Dab]T[Dap][Dab][Dab][dL]T[Dab][Dab]T; lactam 4-C), which Minimum inhibitory concentration [1] is on record?
Answer: <0.125 µg/mL

Question: What about the Minimum inhibitory concentration [2] of the same compound?
Answer: 0.25 µg/mL (≈ 0.209 µM)

Question: And the Minimum inhibitory concentration [3]?
Answer: 0.25 µg/mL (≈ 0.209 µM)

Question: And the Minimum inhibitory concentration [4]?
Answer: <0.125 µg/mL

Question: What about the Minimum inhibitory concentration [5] of the same compound?
Answer: 0.5 µg/mL (≈ 0.417 µM)

Question: What about the Minimum inhibitory concentration [6] of the same compound?
Answer: 0.25 µg/mL (≈ 0.209 µM)

Question: What about the Minimum inhibitory concentration [7] of the same compound?
Answer: <0.125 µg/mL

Question: And the Minimum inhibitory concentration [8]?
Answer: <0.125 µg/mL

Question: And the Minimum inhibitory concentration [9]?
Answer: 0.25 µg/mL (≈ 0.209 µM)

Question: What about the Minimum inhibitory concentration [10] of the same compound?
Answer: 1 µg/mL (≈ 0.835 µM)

Question: And the Minimum inhibitory concentration [11]?
Answer: 0.25 µg/mL (≈ 0.209 µM)

Question: What about the Minimum inhibitory concentration [12] of the same compound?
Answer: <0.125 µg/mL

Question: What about the Minimum inhibitory concentration [13] of the same compound?
Answer: 0.25 µg/mL (≈ 0.209 µM)

Question: `C[C@@H]1NC(=O)[C@@H](Cc2ccccc2)NC(=O)[C@H](CCN)NC(=O)[C@@H](NC(=O)[C@H](CN)NC(=O)[C@@H](NC(=O)[C@H](CCN)NC(=O)c2ncc(Cl)cc2Cl)[C@@H](C)O)CCNC(=O)[C@H]([C@@H](C)O)NC(=O)[C@H](CCN)NC(=O)[C@H](CCN)NC1=O` [Compound 9] (X1-[Dab]T[Dap][Dab][Dab][dF]A[Dab][Dab]T; lactam 4-C) was tested. Which Minimum inhibitory concentration [1] did it give?
Answer: 2 µg/mL (≈ 1.69 µM)

Question: And the Minimum inhibitory concentration [2]?
Answer: 0.25 µg/mL (≈ 0.212 µM)

Question: What about the Minimum inhibitory concentration [3] of the same compound?
Answer: 0.25 µg/mL (≈ 0.212 µM)

Question: And the Minimum inhibitory concentration [4]?
Answer: 2 µg/mL (≈ 1.69 µM)

Question: And the Minimum inhibitory concentration [5]?
Answer: 0.25 µg/mL (≈ 0.212 µM)

Question: And the Minimum inhibitory concentration [6]?
Answer: 1 µg/mL (≈ 0.847 µM)

Question: What about the Minimum inhibitory concentration [7] of the same compound?
Answer: <0.125 µg/mL

Question: What about the Minimum inhibitory concentration [8] of the same compound?
Answer: <0.125 µg/mL

Question: What about the Minimum inhibitory concentration [9] of the same compound?
Answer: 0.25 µg/mL (≈ 0.212 µM)

Question: And the Minimum inhibitory concentration [10]?
Answer: 0.5 µg/mL (≈ 0.423 µM)

Question: What about the Minimum inhibitory concentration [11] of the same compound?
Answer: 0.25 µg/mL (≈ 0.212 µM)

Question: And the Minimum inhibitory concentration [12]?
Answer: <0.125 µg/mL

Question: What about the Minimum inhibitory concentration [13] of the same compound?
Answer: 2 µg/mL (≈ 1.69 µM)

Source: patent publication US11225505B2, “Antimicrobial polymyxin derivative compounds” (MONASH UNIVERSITY, priority 2015, dated 2022)
